Test system: hyaluronidase
Assay: degradation of hyaluronic acid by standard hyaluronidase
Type: biochemical
Description: In the composition, the nicotinamide is not only a functional excipient adapted to protect the hyaluronic acid by virtue of its antioxidant action, but also acts against the action of the hyaluronidase, allowing the viscosupplementation features to be maintained over time. Experimental tests have shown that in a composition without nicotinamide, the hyaluronic acid is degraded by a 50% standard hyaluronidase after one hour; on the contrary, with a presence of nicotinamide in the percentages described above, the hyaluronic acid degrades by only 20% after one hour, while the normal products on the market degrade by 70%.

inhibitory effect on hyaluronidase: inhibitory effect on hyaluronidase
Compound: NC(=O)c1cccnc1 [nicotinamide]
